From patent publication US20110117168A1, “METHODS AND COMPOSITIONS FOR SOFT TISSUE REPAIR” (AFFINERGY, INC., priority 2009, published 2011)
Ends that are not written are not given here.

Columns and labels:
MSCs [1] = assay: Chondrocyte differentiation of peptide-captured MSCs (aggrecan immunostaining); format: cell-based, human; conditions: 24 days in CHONDRODIFF medium
Experimental: Chondrocyte differentiation. To examine chondrocyte differentiation, the MSCs present in the […] column eluants (see Example 6) were pelleted by centrifugation at 150×g for 5 minutes. Cells were washed once with 1 ml MACS NH CHONDRODIFF Medium without disturbing the pellet. Cells were spun again and 1 mL CHONDRODIFF Medium was added to each pellet. Every third day, medium was aspirated and replaced with fresh pre-warmed medium. After 24 days in culture, cells exposed to CHONDRODIFF medium formed cartilage plugs or nodules, whereas control cells formed only loose or small nodules. Cells were washed once with PBS and fixed in neutral buffered formalin overnight. Sections were embedded in paraffin and sectioned at 5 microns. Sections were examined by hemotoxylin and eosin staining (data not shown). Sections were further examined by immunostaining for aggrecan, a major structural component of cartilage. In FIG. 27, sections from the periphery (panels A and B) or center (panels C and D) were incubated with an antibody against aggrecan (ABCAM) (panels B and D) or with secondary detection reagents only as a control (panels A and C), then counterstained with DAPI to reveal cell nuclei. […] Control images of captured cells grown in the absence of differentiation medium could not be taken due to the small and loose nature of nodules.

MSCs [2] = assay: Capture of MSCs from bone marrow aspirate, colony forming units; format: cell-based, human; conditions: biotinylated peptide, streptavidin-coated MILTENYI beads; compared to CD105 and MSCA-1 antibody beads
Experimental: This experiment was performed to examine the ability of cell binding peptide SEQ ID NO: 4 to capture MSCs directly from bone marrow aspirate in comparison to two separate antibodies against the CD105 I antigen (CD105) and the MSCA-1 stem cell antigen (MSCA-1). This experiment employed biotinylated peptides with streptavidin-coated […] magnetic beads. The peptides were biotinylated as described herein at Example 2. […] For the antibody capture experiment, magnetic beads having covalently attached CD105 or MSCA-1 antibody were employed ([…]). Prior to incubation with the peptides and antibodies, bone marrow aspirate (BMA) was mixed with 5 volumes of 10 mM ammonium chloride for 1-2 min at room temperature to lyse red blood cells. The lysate was centrifuged for 5 min at 300×g and the supernatant discarded. The cell pellet was washed with wash buffer (PBS+0.5% bovine serum albumin+0.5 mM EDTA) and cells were resuspended in […] peptide at a concentration of 10^8 per mL. For peptide binding studies, the cell suspension was incubated with the biotinylated peptides for 30 min at 4° C. to allow for binding. After incubation, cells were spun down at 300×g for 5 min, and peptide solution was aspirated. Cells were then rinsed twice with wash buffer, with centrifugation between washes. […] Colony forming units (CFUs) were counted after 14 days in culture. […]

MSCs [3] = assay: Osteoblast differentiation of peptide-captured MSCs (Alizarin Red S); format: cell-based, human; conditions: 14 days in osteoblast differentiation medium
Experimental: Osteoblast differentiation. For osteogenic differentiation, the MSCs present in the […] column eluants (see Example 6) were cultured for 14 days in complete medium supplemented with 0.1 μM dexamethasone, 50 μM ascorbate-2-phosphate, 10 mM β-glycerophosphate, and 1% antibiotic/antimycotic. Calcium mineralization was measured by Alizarin Red S (SIGMA) staining to reveal mineralizing osteoblasts (see FIG. 26, panel C (undifferentiated MSCs) and panel D (osteoblast differentiated MSCs)).

human MSCs = assay: Capture of cultured MSCs with peptide on […] Streptavidin microbeads in LS columns; format: cell-based; conditions: 160,000 cultured human MSCs, peptide 20 μM on Streptavidin microbeads, LS column
Experimental: In this experiment the ability of the biotinylated cell binding peptide SEQ ID NO: 4 to capture human MSCs from a homogeneous cultured cell population was examined. The cell binding peptide SEQ ID NO: 4 was biotinylated as described herein at Example 2. The cell binding peptide SEQ ID NO: 4, and a non-binding control peptide, were added to separate 300 μl volumes of […] BIOTEC Streptavidin microbeads at a concentration of 20 μM. These beads are made from iron filings, coated with a dextran coating which is functionalized with streptavidin moieties. Peptide was incubated with beads for 45 min on ice. The 300 μl of peptide coated microbeads were added to pre-equilibrated LS columns outside of the magnetic field to evenly distribute the magnetic beads throughout the columns. Columns were then placed into a magnetic field, and excess peptide was washed away with buffer while retaining the peptide coated microbeads. Cultured and expanded human MSCs from bone marrow aspirate (160,000 cells; LONZA) were added to each LS column and allowed to pass through by gravity flow. Flowthrough was collected and cycled through the columns 5 times, after which the columns were washed with 5 ml buffer. […] The collected flowthrough with 5 ml wash and eluted cells were spun down, resuspended in a smaller volume, and counted by hemacytometer (see FIG. 17). […]

MSCs [4] = assay: Adipocyte differentiation of peptide-captured MSCs (Oil Red O); format: cell-based, human; conditions: 21 days in adipocyte differentiation medium
Experimental: Adipocyte differentiation. After capture of MSCs using cell binding peptide SEQ ID NO: 4 with the […] magnetic system according to Example 6, the ability of the captured cells to differentiate into an adipocyte lineage was examined. The MSCs present in the […] column eluants (see Example 6) were cultured for 21 days in complete medium (DMEM, 10% FBS, 100 units/mL penicillin, 100 μg/mL streptomycin, and 2 mM glutamine) supplemented with 0.5 mM isobutyl methylxanthine, 1 μM dexamethasone, 10 μM insulin, 200 μM indomethacin, and 1% antibiotic/antimycotic. Following the 21 day incubation, the cells were fixed in 4% paraformaldehyde in PBS for 15 minutes, washed in 60% isopropanol for 5 minutes, and stained with Oil Red 0 (SIGMA) for 10 minutes to determine the extent of adipogenesis (see FIG. 26, panels A (undifferentiated MSCs) and panel B (adipocyte differentiated MSCs)). The image of the adipose differentiated cells (FIG. 26, panel B) contains a larger magnification inset where the lipid vacuoles are clearly visible.

SSFWDVCQGDGTCYGGGSR (SSFWDVCQGDGTCYGGGSRGSSG-{K(biotin)}; cysteine pairing not given here) [SEQ ID NO: 4, tested biotinylated with GSSGK(biotin) or other spacer at the C-terminus]
chondrocyte differentiation of captured MSCs (aggrecan) (MSCs [1]): aggrecan could be detected | MSC capture from bone marrow aspirate (CFUs after 14 days in culture) (MSCs [2]): as efficient as capture by either of the CD105 or MSCA-1 antibodies | osteoblast differentiation of captured MSCs (MSCs [3]): osteogenic pathway remains intact | capture of MSCs (human MSCs): approximately 70% | adipocyte differentiation of captured MSCs (MSCs [4]): adipogenesis pathway remains intact
